Patent US7365053B2, “Selective N-acylation of A82846 glygopeptides analogs” (priority 2000, dated 2008)
Converted amounts (≈) assume the structure as drawn.

Columns and labels:
[1] = tested on: Enterococcus faecalis 2041; test: Broth micro-dilution MIC; type: cell-based; conditions: BHI medium
Protocol: (§1) The compounds of the present invention have in vitro activity against Gram-positive pathogenic bacteria. The antibacterial activity of the present compounds is illustrated in Tables III and IV. The minimal inhibitory concentrations (MICs) were determined using a standard broth micro-dilution assay. Table IV presents a comparison of the activity of illustrative compounds against representative vancomycin-resistant and vancomycin-sensitive enterococci (Enterococcus faecium and Enterococcus faecalis), mean geometric MIC (mcg/mL), as determined by the standard broth microdilution assay.
(§2) Assays for antimicrobial activity were performed using microbroth susceptibility testing methods as described by the NCCLS (National Committee for Clinical Laboratories Standards. 1990. Approved standard M7-A2. Methods for dilution antimicrobial susceptibility testing for bacteria that grow aerobically, 2 ed., Villanova Pa.). Brain-heart infusion medium (BHI) was used for testing of enterococci, and NCCLS recommendations for medium were followed for other bacteria.

[2] = tested on: Enterococcus faecalis 276; test: Broth micro-dilution MIC; type: cell-based; conditions: BHI medium
Protocol: as §1, §2

[3] = tested on: Enterococcus faecium 180-1; test: Broth micro-dilution MIC; type: cell-based; conditions: BHI medium
Protocol: as §1, §2

[4] = tested on: Enterococcus faecium 180; test: Broth micro-dilution MIC; type: cell-based; conditions: BHI medium
Protocol: as §1, §2

[5] = tested on: Enterococcus gallinarum 245; test: Broth micro-dilution MIC; type: cell-based; conditions: BHI medium
Protocol: as §1, §2

[6] = tested on: Escherichia coli EC14; test: Broth micro-dilution MIC; type: cell-based
Protocol: as §1, §2

[7] = tested on: Staphylococcus aureus 446; test: Broth micro-dilution MIC; type: cell-based
Protocol: as §1, §2

[8] = tested on: Staphylococcus aureus 447; test: Broth micro-dilution MIC; type: cell-based
Protocol: as §1, §2

[9] = tested on: Staphylococcus aureus 489; test: Broth micro-dilution MIC; type: cell-based
Protocol: as §1, §2

[10] = tested on: Staphylococcus aureus 491; test: Broth micro-dilution MIC; type: cell-based
Protocol: as §1, §2

[11] = tested on: Staphylococcus aureus S13E; test: Broth micro-dilution MIC; type: cell-based
Protocol: as §1, §2

[12] = tested on: Staphylococcus aureus SA1199A; test: Broth micro-dilution MIC; type: cell-based
Protocol: as §1, §2

[13] = tested on: Staphylococcus aureus SA1199B; test: Broth micro-dilution MIC; type: cell-based
Protocol: as §1, §2

[14] = tested on: Staphylococcus aureus SA1199; test: Broth micro-dilution MIC; type: cell-based
Protocol: as §1, §2

[15] = tested on: Staphylococcus aureus X400; test: Broth micro-dilution MIC; type: cell-based
Protocol: as §1, §2

[16] = tested on: Staphylococcus aureus X778; test: Broth micro-dilution MIC; type: cell-based
Protocol: as §1, §2

[17] = tested on: Staphylococcus epidermidis 270; test: Broth micro-dilution MIC; type: cell-based
Protocol: as §1, §2

[18] = tested on: Staphylococcus haemolyticus 105; test: Broth micro-dilution MIC; type: cell-based
Protocol: as §1, §2

[19] = tested on: Staphylococcus haemolyticus 415; test: Broth micro-dilution MIC; type: cell-based
Protocol: as §1, §2

[20] = tested on: Streptococcus pneumoniae P1; test: Broth micro-dilution MIC; type: cell-based
Protocol: as §1, §2

[21] = tested on: Streptococcus pyogenes C203; test: Broth micro-dilution MIC; type: cell-based
Protocol: as §1, §2

[22] = tested on: vancomycin-resistant enterococci; test: In vitro activity against enterococci, broth microdilution; type: cell-based, Enterococcus faecium and Enterococcus faecalis; conditions: representative vancomycin-resistant enterococci (E. faecium and E. faecalis); BHI medium
Protocol: as §1, §2

[23] = tested on: vancomycin-sensitive enterococci; test: as above; type: cell-based, Enterococcus faecium and Enterococcus faecalis; conditions: representative vancomycin-sensitive enterococci (E. faecium and E. faecalis); BHI medium
Protocol: as §1, §2

Row | Structure (SMILES) | MIC [1] | MIC [2] [µg/mL] | MIC [3] | MIC [4] [µg/mL] | MIC [5] [µg/mL] | MIC [6] [µg/mL] | MIC [7] [µg/mL] | MIC [8] [µg/mL] | MIC [9] [µg/mL] | MIC [10] [µg/mL] | MIC [11] [µg/mL] | MIC [12] | MIC [13] [µg/mL] | MIC [14] [µg/mL] | MIC [15] [µg/mL] | MIC [16] [µg/mL] | MIC [17] [µg/mL] | MIC [18] | MIC [19] [µg/mL] | MIC [20] | other results
1 | CCCCCCCC(=O)N(C)C(CC(C)C)C(=O)NC1C(=O)NC(CC(N)=O)C(=O)NC2C(=O)NC3C(=O)NC(C(=O)NC(C(=O)O)c4cc(O)cc(O)c4-c4cc3ccc4O)C(OC3CC(C)(N)C(O)C(C)O3)c3ccc(c(Cl)c3)Oc3cc2cc(c3OC2OC(CO)C(O)C(O)C2OC2CC(C)(N)C(O)C(C)O2)Oc2ccc(cc2Cl)C1O (stereo not drawn) [Example 10, 1′-N-octanoyl-A82846B] | 0.25 µg/mL (≈ 0.145 µM) | 0.25 (≈ 0.145 µM) | ≦.06 μg/ml | 32 (≈ 18.6 µM) | 2 (≈ 1.16 µM) | >64 | 1 (≈ 0.582 µM) | 1 (≈ 0.582 µM) | 0.25 (≈ 0.145 µM) | 0.25 (≈ 0.145 µM) | 0.5 (≈ 0.291 µM) | 0.125 µg/mL (≈ 0.0727 µM) | 0.5 (≈ 0.291 µM) | 0.5 (≈ 0.291 µM) | 0.5 (≈ 0.291 µM) | 0.5 (≈ 0.291 µM) | 0.5 (≈ 0.291 µM) | 1 µg/mL (≈ 0.582 µM) | 16 (≈ 9.31 µM) | ≦.06 μg/ml | MIC [21]: ≦.06 μg/ml; Mean geometric MIC, Vancomycin Resistant Strains [22]: 90 µg/mL; Mean geometric MIC, Vancomycin Sensitive Strains [23]: 2.3 µg/mL
2 | CNC(CC(C)C)C(=O)NC1C(=O)NC(CC(N)=O)C(=O)NC2C(=O)NC3C(=O)NC(C(=O)NC(C(=O)O)c4cc(O)cc(O)c4-c4cc3ccc4O)C(OC3CC(C)(N)C(O)C(C)O3)c3ccc(c(Cl)c3)Oc3cc2cc(c3OC2OC(CO)C(O)C(O)C2OC2CC(C)(NC(=O)CCCCCCCc3ccccc3)C(O)C(C)O2)Oc2ccc(cc2Cl)C1O (stereo not drawn) [Example 11] | ≦.06 μg/ml | 0.25 (≈ 0.139 µM) | ≦.06 μg/ml | 0.5 (≈ 0.279 µM) | 4 (≈ 2.23 µM) | >64 | 1 (≈ 0.557 µM) | 2 (≈ 1.11 µM) | 0.25 (≈ 0.139 µM) | 0.125 (≈ 0.0696 µM) | 0.25 (≈ 0.139 µM) | ≦.06 μg/ml | 0.25 (≈ 0.139 µM) | 1 (≈ 0.557 µM) | 0.5 (≈ 0.279 µM) | 0.125 (≈ 0.0696 µM) | 1 (≈ 0.557 µM) | ≦.06 μg/ml | 4 (≈ 2.23 µM) | ≦.06 μg/ml | MIC [21]: ≦.06 μg/ml; Mean geometric MIC, Vancomycin Resistant Strains [22]: 9.5 µg/mL; Mean geometric MIC, Vancomycin Sensitive Strains [23]: 0.093 µg/mL
3 | CC(C)CC(C(=O)NC1C(=O)NC(CC(N)=O)C(=O)NC2C(=O)NC3C(=O)NC(C(=O)NC(C(=O)O)c4cc(O)cc(O)c4-c4cc3ccc4O)C(OC3CC(C)(N)C(O)C(C)O3)c3ccc(c(Cl)c3)Oc3cc2cc(c3OC2OC(CO)C(O)C(O)C2OC2CC(C)(N)C(O)C(C)O2)Oc2ccc(cc2Cl)C1O)N(C)C(=O)CCCCCCCc1ccccc1 (stereo not drawn) [Example 13] | 0.25 µg/mL (≈ 0.139 µM) | 0.25 (≈ 0.139 µM) | ≦.06 μg/ml | 8 (≈ 4.46 µM) | 2 (≈ 1.11 µM) | >64 | 0.5 (≈ 0.279 µM) | 0.5 (≈ 0.279 µM) | 0.125 (≈ 0.0696 µM) | 0.125 (≈ 0.0696 µM) | 0.5 (≈ 0.279 µM) | ≦.06 μg/ml | 0.25 (≈ 0.139 µM) | 0.5 (≈ 0.279 µM) | 0.25 (≈ 0.139 µM) | 0.25 (≈ 0.139 µM) | 0.25 (≈ 0.139 µM) | ≦.06 μg/ml | 8 (≈ 4.46 µM) | ≦.06 μg/ml | MIC [21]: ≦.06 μg/ml; Mean geometric MIC, Vancomycin Resistant Strains [22]: >51 µg/mL; Mean geometric MIC, Vancomycin Sensitive Strains [23]: 1.5 µg/mL
